Literature values in patent US20230355508A1, “TREATING NEUROPATHIC PAIN IN SPINAL CORD INJURED INDIVIDUALS” (CNS Biosciences, Inc., priority 2016, published 2023).
Read-outs that look alike come from different tables or passages of the source.

Test system: neuropathic pain following spinal cord injury
Details: Finnerup et al., Scandinavian Journal of Pain 2009; for relief of neuropathic pain following spinal cord injury: patients with neuropathic pain following SCI

SMILES: CC[C@@H](C(N)=O)N1CCCC1=O (single isomer, unassigned) [levetiracetam]
- relief of spasm severity following spinal cord injury (patients with SCI): does not relieve
- relief of neuropathic pain following spinal cord injury: does not relieve
- relief of neuropathic pain following spinal cord injury (listed as Levetiracetam): no analgesic or other benefit
